Results on seven molecules are retold here after US11274095B2, “Modulators of methyl modifying enzymes, compositions and uses thereof” (Constellation Pharmaceuticals, Inc., priority 2018, dated 2022).

As a reminder, the Papp is a coefficient for how fast a substance crosses the barrier. The efflux ratio is a quotient of directional permeabilities that is used to spot active efflux. A word on the GI50: it is the concentration giving 50% growth inhibition. A low value points to greater sensitivity of the cells.

A short description of series [1]: Cellular permeability in MDCK assay. It counts as in vitro ADME. As to conditions: dog, pH 7.4, MDCK II, with P-gp inhibitor GF120918 10 μM; for efflux ratio at 2.5 h, 2 μM: Papp(BA)/Papp(AB). The method, then: Cell culture: MDCK II cells (obtained from Piet Borst at the Netherlands Cancer Institute) were seeded onto […] (PET) in 96-well BD insert systems at 2.5×10^5 cells/mL until to 4-7 days for confluent cell monolayer formation.
Experimental procedure: Test and reference compounds (nadolol, metoprolol and digoxin) were diluted with transport buffer (HBSS with 10mM Hepes, pH7.4) from stock solution to a concentration of 2 μM (<1% DMSO) and applied to the apical (A) or basolateral (B) side of the cell monolayer. Permeation of the test compounds from A to B direction or B to A direction was determined in duplicate with P-gp inhibitor (GF120918, 10 μM). Digoxin was tested at 10 μM from A to B direction or B to A direction with/without P-gp inhibitor (GF120918, 10 μM) as well, while nadolol and metoprolol were tested at 2 μM in A to B direction without P-gp inhibitor (GF120918, 10 μM) in duplicate. The plate was incubated for 2.5 hours in CO2 incubator at 37±1° C., with 5% CO2 at saturated humidity without shaking. In addition, the efflux ratio of each compound was also determined. Test and reference compounds were quantified by LC/MS/MS analysis based on the peak area ratio of analyte/IS. After transport assay, Lucifer yellow rejection assay are applied to determine the cell monolayer integrity. Buffers are removed from both apical and basolateral chambers, followed by the addition of 75 μL of 100 μM lucifer yellow in transport buffer and 250 μL transport buffer in apical and basolateral chambers, respectively. The plate is incubated for 30 minutes at 37° C. with 5% CO2 and 95% relative humidity without shaking. After 30 minutes incubation, 20 μL of lucifer yellow samples are taken from the apical sides, followed by the addition of 60 μL of Transport Buffer. And then 80 μL of lucifer yellow samples are taken from the basolateral sides. The relative fluorescence unit (RFU) of lucifer yellow is measured at 425/528 nm (excitation/emission) with a Molecular Device M2e plate reader.
Data analysis: The apparent permeability coefficient Papp (cm/s) was calculated using the equation: Papp=(dCr/dt)×Vr/(A×C0) Where dCr/dt is the cumulative concentration of compound in the receiver chamber as a function of time (μM/s); Vr is the solution volume in the receiver chamber (0.075 mL on the apical side, 0.25 mL on the basolateral side); A is the surface area for the transport, i.e. 0.0804 cm2 for the area of the monolayer; C0 is the initial concentration in the donor chamber (μM).
The efflux ratio was calculated using the equation: Efflux Ratio=Papp(BA)/Papp(AB) Percent recovery was calculated using the equation: % Recovery=100×[(Vr×Cr)+(Vd×Cd)]/(Vd×C0) Where Vd is the volume in the donor chambers (0.075 mL on the apical side, 0.25 mL on the basolateral side); Cd and Cr are the final concentrations of transport compound in donor and receiver chambers, respectively.
Percent of lucifer yellow in basolateral well is calculated using the equation:
[formula] where RFUApical and RFUBasolateral are the relative fluorescence unit values of lucifer yellow in the apical and basolateral wells, respectively; VApical and VBasolateral are the volume of apical and basolateral wells (0.075 mL and 0.25 mL), respectively. Percent lucifer yellow should be less than 2.

For another series, the system named is Karpas-422 cell lines. As to the kind of experiment: Karpas-422 viability assay (Cell Titer-Glo, Day 8). It counts as cell-based. The note with it: Homo sapiens, KARPAS-422, 192 h, Cell Titer-Glo on Day 8. The procedure: Karpas-422 cell lines were obtained from DSMZ (Braunschweig, Germany) and were grown in RPMI-1640 media. All media contained 10% fetal bovine serum (FBS) and 1% penicillin/streptomycin (Invitrogen). 20K cells per well were plated onto 96 well compound coated plates. Cells were split and seeded at original plating density (based on the DMSO well counts) every 4 days into plates containing fresh EZH2 inhibitors. Relative cell numbers were assessed by Cell Titer-Glo luminescent cell viability assay (Promega) on Day 8. GraphPad Prism 5 was used for curve fitting and GI50 values were reported.

The target of the next series is PRC2 containing wt EZH2 (Homo sapiens (Human), UniProt Q15910). As to the kind of experiment: EZH2 residence time assay (100-fold dilution of enzyme-inhibitor complex). It counts as biochemical. The procedure: EZH2 residence time assay: Compound residence times were assessed by monitoring the recovery of enzyme activity following a 100-fold dilution of pre-formed enzyme-inhibitor complex (dilution reaction), and comparing it to the activity of an undiluted control with the same final concentrations of all reagents (control reaction). Enzyme activity was measured by incorporation of ^3H-SAM into a biotinylated H3 peptide. For the dilution reaction, 20 nM PRC2 containing wt EZH2 (pentameric complex prepared in-house) was pre-incubated with 1 μM activating peptide (H2N-RKQLATKAAR(Kme3)SAPATGGVKKP-amide) and compound at 600 times its Ki for 2 h in 40 μL of buffer (50 mM Tris pH 8.5, 4 mM DTT, 1 mM MgCl2, 0.07 mM Brij-35, and 0.1 mg/mL BSA), then diluted 100-fold and the reaction initiated by transferring 1.4 μL to a 138.6 μL volume of buffer containing 1 μM activating peptide, 5.05 μM substrate peptide (H2N-[…]-NTPEGbiot), 1.01 μM SAM, and 1.01 μM ^3H-SAM. […] Reactions were quenched at various time points spanning up to 10 hours, by transferring 8μL aliquots from the reaction vessel to a plate containing 8μL per well of STOP solution (50 mM Tris pH 8.5, 200 mM EDTA, 2 mM SAH). After the last time point, 12 μL of the quenched solutions were transferred to a streptavidin coated FlashPlate (PerkinElmer) containing 40 μL per well of STOP solution, incubated 1-8 h, washed, and read in a TopCount plate reader (PerkinElmer).
A custom script was used to fit control reaction progress data to a straight line and dilution reaction progress data:
[formula] Where y is the product formed, t is the reaction time, vi is the initial velocity, vs is the steady state velocity, and kobs is the rate constant for the transition from the initial velocity phase of the curve to the steady state velocity phase of the curve. In fitting the dilution reaction progress data, vs was constrained to the slope of the line fitted to the control reaction progress data. The fitted value of kobs was then transformed into residence time:
[formula] Where τ is residence time, Ki is the inhibition constant, [EI] is the calculated equilibrium concentration of enzyme-inhibitor complex, [E] is the calculated equilibrium concentration of free enzyme, and [I] is the calculated equilibrium concentration of free inhibitor.

Setting [2] is: recovery of enzyme activity after 100-fold dilution, read-out: EZH2 residence time (converted).

SMILES strings stand for the structures. Where two headings read alike, the source gives them in different places.

PRC2 containing wt EZH2, sequence (Q15910 whole entry): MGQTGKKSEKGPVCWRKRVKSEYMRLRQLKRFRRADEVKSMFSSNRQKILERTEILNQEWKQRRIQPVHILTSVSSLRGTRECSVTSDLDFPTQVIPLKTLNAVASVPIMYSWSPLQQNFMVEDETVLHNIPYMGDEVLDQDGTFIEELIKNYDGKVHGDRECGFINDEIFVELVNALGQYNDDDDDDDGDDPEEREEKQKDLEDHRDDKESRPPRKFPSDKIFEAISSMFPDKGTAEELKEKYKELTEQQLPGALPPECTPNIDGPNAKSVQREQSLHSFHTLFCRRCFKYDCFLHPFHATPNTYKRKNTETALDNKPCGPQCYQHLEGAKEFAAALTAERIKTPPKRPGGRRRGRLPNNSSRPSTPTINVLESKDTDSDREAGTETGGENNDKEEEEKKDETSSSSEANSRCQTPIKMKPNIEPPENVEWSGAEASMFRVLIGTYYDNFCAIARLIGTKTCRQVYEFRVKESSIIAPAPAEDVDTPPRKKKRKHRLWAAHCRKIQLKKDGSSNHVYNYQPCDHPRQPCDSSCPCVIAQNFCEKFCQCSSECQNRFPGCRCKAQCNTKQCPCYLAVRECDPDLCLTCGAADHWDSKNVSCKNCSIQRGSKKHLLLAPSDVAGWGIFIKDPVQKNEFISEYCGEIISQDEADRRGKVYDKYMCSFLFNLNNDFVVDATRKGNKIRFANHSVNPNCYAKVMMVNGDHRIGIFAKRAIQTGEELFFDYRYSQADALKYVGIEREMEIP
PRC2 containing wt EZH2, sequence (O75530 whole entry partner): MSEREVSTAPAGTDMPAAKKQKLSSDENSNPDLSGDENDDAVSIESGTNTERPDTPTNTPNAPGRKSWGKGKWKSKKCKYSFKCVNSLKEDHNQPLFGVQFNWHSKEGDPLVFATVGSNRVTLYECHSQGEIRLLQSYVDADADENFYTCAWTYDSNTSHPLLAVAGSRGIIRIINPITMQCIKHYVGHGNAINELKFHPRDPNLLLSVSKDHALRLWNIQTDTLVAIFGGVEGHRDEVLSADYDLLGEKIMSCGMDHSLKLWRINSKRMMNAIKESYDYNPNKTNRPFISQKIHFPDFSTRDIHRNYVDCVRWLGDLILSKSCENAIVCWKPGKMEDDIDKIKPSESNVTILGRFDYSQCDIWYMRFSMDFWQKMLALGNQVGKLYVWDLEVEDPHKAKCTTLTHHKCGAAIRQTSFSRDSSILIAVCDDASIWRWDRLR
PRC2 containing wt EZH2, sequence (Q15022 whole entry partner): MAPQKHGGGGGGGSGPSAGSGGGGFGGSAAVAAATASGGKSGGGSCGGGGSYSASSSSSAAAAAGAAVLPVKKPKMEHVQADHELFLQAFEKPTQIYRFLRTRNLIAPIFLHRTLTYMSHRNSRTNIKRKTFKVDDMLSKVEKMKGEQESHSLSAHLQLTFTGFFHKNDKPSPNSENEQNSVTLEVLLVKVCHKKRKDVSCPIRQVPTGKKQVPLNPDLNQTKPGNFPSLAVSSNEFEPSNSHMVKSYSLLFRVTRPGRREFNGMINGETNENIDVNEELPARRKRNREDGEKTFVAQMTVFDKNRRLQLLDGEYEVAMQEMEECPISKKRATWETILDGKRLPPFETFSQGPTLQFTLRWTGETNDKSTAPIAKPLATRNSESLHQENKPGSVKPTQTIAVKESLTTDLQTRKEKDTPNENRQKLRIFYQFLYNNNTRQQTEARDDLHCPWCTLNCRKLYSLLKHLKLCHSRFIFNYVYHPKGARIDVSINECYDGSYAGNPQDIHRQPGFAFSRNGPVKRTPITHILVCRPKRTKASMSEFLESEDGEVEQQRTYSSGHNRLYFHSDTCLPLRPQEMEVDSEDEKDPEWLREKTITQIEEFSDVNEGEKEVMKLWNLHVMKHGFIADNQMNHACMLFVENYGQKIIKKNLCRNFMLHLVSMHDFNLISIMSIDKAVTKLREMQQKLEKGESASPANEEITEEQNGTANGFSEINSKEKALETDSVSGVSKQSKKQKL
PRC2 containing wt EZH2, sequence (Q09028 whole entry partner): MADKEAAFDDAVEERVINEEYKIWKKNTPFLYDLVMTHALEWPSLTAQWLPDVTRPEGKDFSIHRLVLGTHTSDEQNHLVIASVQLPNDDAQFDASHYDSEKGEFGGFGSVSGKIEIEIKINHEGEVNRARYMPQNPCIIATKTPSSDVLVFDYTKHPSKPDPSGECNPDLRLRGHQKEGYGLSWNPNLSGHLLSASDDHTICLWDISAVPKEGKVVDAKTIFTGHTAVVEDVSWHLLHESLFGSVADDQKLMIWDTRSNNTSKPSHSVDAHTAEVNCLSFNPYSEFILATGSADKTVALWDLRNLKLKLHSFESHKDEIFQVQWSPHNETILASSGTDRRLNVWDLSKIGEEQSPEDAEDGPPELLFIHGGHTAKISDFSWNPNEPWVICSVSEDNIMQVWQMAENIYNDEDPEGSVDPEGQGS
PRC2 containing wt EZH2, sequence (Q6ZN18 whole entry partner): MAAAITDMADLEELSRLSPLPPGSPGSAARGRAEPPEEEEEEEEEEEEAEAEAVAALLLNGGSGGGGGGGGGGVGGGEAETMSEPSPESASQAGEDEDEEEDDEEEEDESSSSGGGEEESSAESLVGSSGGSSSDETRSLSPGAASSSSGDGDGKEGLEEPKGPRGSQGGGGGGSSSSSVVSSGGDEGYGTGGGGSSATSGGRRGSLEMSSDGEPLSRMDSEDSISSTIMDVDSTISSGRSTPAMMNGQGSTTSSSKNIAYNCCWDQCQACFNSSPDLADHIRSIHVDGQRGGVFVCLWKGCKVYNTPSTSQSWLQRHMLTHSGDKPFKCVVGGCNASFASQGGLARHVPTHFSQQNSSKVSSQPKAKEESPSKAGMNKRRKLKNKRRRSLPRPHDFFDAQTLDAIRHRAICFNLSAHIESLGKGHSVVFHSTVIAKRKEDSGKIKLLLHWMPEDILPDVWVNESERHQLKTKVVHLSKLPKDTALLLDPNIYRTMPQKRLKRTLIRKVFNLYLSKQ

Regarding `CSc1cc(C)[nH]c(=O)c1CNC(=O)c1cc(Cl)c2c(c1C)OC(C)(C1CCC(N3CC(OC4CC4)C3)CC1)O2` (single isomer, unassigned) [Example 9], in series [1], the Papp at 2.5 h, 2 μM is 3.8 ×10⁻⁶ cm/s and the efflux ratio at 2.5 h, 2 μM amounted to 1.4. Also, it took 3.7 nM to inhibit growth in the series with Karpas-422 cell lines by half (GI50). Besides, the residence time at PRC2 containing wt EZH2 (setting [2]) is above 6000 min.
The corresponding values for `CSc1cc(C)[nH]c(=O)c1CNC(=O)c1cc(Cl)c2c(c1C)OC(C)(C1CCC(N3CC(F)C3)CC1)O2` (single isomer, unassigned) [Example 12] are 6.3 ×10⁻⁶ cm/s, 1.2, 4.4 nM and above 6000 min.
The corresponding values for `Cc1cc(Cl)c(CNC(=O)c2cc(Cl)c3c(c2C)OC(C)(C2CCC(N4CC(OC(F)F)C4)CC2)O3)c(=O)[nH]1` (single isomer, unassigned) [Example 13] are 8.9 ×10⁻⁶ cm/s, 0.64, 9.7 nM and 2880 min.
The corresponding values for `COC1CN(C2CCC(C3(C)Oc4c(Cl)cc(C(=O)NCc5c(SC)cc(C)[nH]c5=O)c(C)c4O3)CC2)C1` (single isomer, unassigned) [Example 17, 7-chloro-2-(4-(3-methoxyazetidin-1-yl)cyclohexyl)-2,4-dimethyl-N-((6-methyl-4-(methylthio)-2-oxo-1,2-dihydropyridin-3-yl)methyl)benzo[d][1,3]dioxole-5-carboxamide] are 2.5 ×10⁻⁶ cm/s, 1.8, 3.5 nM and above 6000 min.
Consider `Cc1cc(Cl)c(CNC(=O)c2cc(Cl)c3c(c2C)OC(C)(C2CCC(N4CC(OC5CC5)C4)CC2)O3)c(=O)[nH]1` (single isomer, unassigned) [Example 8, 7-chloro-N-((4-chloro-6-methyl-2-oxo-1,2-dihydropyridin-3-yl)methyl)-2-(4-(3-cyclopropoxyazetidin-1-yl)cyclohexyl)-2,4-dimethylbenzo[d][1,3]dioxole-5-carboxamide], for which, in series [1], the Papp at 2.5 h, 2 μM is 6.1 ×10⁻⁶ cm/s and the efflux ratio at 2.5 h, 2 μM worked out at 0.9. The molecule also came in with a GI50 in the series on Karpas-422 cell lines of 5 nM. Besides, at PRC2 containing wt EZH2 (setting [2]), the residence time is above 6000 min.
Consider `CSc1cc(C)[nH]c(=O)c1CNC(=O)c1cc(Cl)c2c(c1C)OC(C)(C1CCC(N3CC(OC(F)F)C3)CC1)O2` (single isomer, unassigned) [Example 1, 7-chloro-2-(4-(3-(difluoromethoxy)azetidin-1-yl)cyclohexyl)-2,4-dimethyl-N-((6-methyl-4-(methylthio)-2-oxo-1,2-dihydropyridin-3-yl)methyl)benzo[d][1,3]dioxole-5-carboxamide], for which, in series [1], the Papp at 2.5 h, 2 μM was determined as 5.6 ×10⁻⁶ cm/s and the efflux ratio at 2.5 h, 2 μM came out at 0.79. The molecule further gave a GI50 with Karpas-422 cell lines of 3.9 nM. The residence time at PRC2 containing wt EZH2 (read-out: EZH2 residence time) is above 6000 min.
For `CSc1nc(C)[nH]c(=O)c1CNC(=O)c1cc(Cl)c2c(c1C)OC(C)(C1CCC(N3CC(OC(F)F)C3)CC1)O2` (single isomer, unassigned) [Example 10], in series [1], the Papp at 2.5 h, 2 μM was determined as 6.5 ×10⁻⁶ cm/s and the efflux ratio at 2.5 h, 2 μM was 0.69. This molecule registered a GI50 in the series with Karpas-422 cell lines of 20 nM. For the same molecule, the residence time at PRC2 containing wt EZH2 (setting [2]) is 2220 min.
